This note sets out measurements from patent US6761911B2 (The United States of America as represented by the …, priority 1999, dated 2004).

Experiment [1] relates to culturable anaerobes. The experiment is described as follows: Most probable number of culturable anaerobes in ruminal fluid incubated with chlorate. The class given is cell-based. To be noted: 5 mM sodium chlorate, anaerobic, 39° C.
Experiment [2] deals with E. coli. Description: Intraruminal sodium chlorate in cattle: ruminal and fecal E. coli viable cell counts on MacConkey agar. The class given is in vivo. The note with it: for Mean ± SD (n = 2) fecal EC concentration / Mean ± SD (n = 2) ruminal EC concentration: treated (30 mM sodium chlorate intraruminally). The method, then: Concentrations of E. coli in the ruminal contents and in feces collected from the test animals were determined by viable cell counts on MacConkey agar plates.

Structures are written as SMILES.

`[O-][Cl+2]([O-])O` [chlorate, sodium chlorate]: in experiment [1], the “effect on the most probable number of culturable anaerobes” value is recorded as “little effect”. The “decrease in ruminal E. coli concentration” value in experiment [2] (fasted and non-fasted, 30 mM sodium chlorate, after 24 hours (compared with 10 hours)) is recorded as “significantly greater”. For the same compound, the “change of ruminal E. coli concentrations from prechlorate levels” value in experiment [2] (fasted and non-fasted, 30 mM sodium chlorate, by 10 hours after chlorate administration) was “decreased only slightly”. Also, the “Mean ± SD (n = 2) fecal EC concentration” value in experiment [2] (fasted, 0 h post treatment) turned out to be 5.29 ± 0.24 log base 10 CFU/g; in experiment [2] (fasted, 24 h post treatment) it was 2.33 ± 1.24 log base 10 CFU/g; in experiment [2] (nonfasted, 0 h post treatment) it was 5.19 ± 1.68 log base 10 CFU/g; in experiment [2] (nonfasted, 24 h post treatment), 2.65 ± 1.91 log base 10 CFU/g. Besides, the “Mean ± SD (n = 2) ruminal EC concentration” value stood at 3.62 ± 2.29 log base 10 CFU/g in experiment [2] (fasted, 0 h post treatment); 3.27 ± 3.21 log base 10 CFU/g in experiment [2] (fasted, 10 h post treatment); 2.40 ± 0.20 log base 10 CFU/g in experiment [2] (fasted, 24 h post treatment); 3.66 ± 1.76 log base 10 CFU/g in experiment [2] (nonfasted, 0 h post treatment); 2.22 ± 3.14 log base 10 CFU/g in experiment [2] (nonfasted, 10 h post treatment); 2.28 ± 1.38 log base 10 CFU/g in experiment [2] (nonfasted, 24 h post treatment).
